Several values for one entry are separate records, joined by “and”; a condition that tells them apart may be missing. Equal entries are not always repeated.
Legend:
[1] = tested on: A375 human melanoma cells; experiment: Cytotoxicity assay (MTT relative viability), A375 cells; type: cell-based; conditions: BSG and BO applied together, 72 hours, FIGS. 1A and 1B
Method: (§1) A375 human melanoma cells (obtained from Food Industry Research and Development Institute, Hsinchu, Taiwan, R.O.C. under accession number CCRC 60039) and normal human keratinocyte (HaCaT) cells (obtained from Dr. Lin P., Institute of Medical & Molecular Toxicology, Chung Shan Medical University, Taichung, Taiwan) were used for the test.
(§2) A375 and HaCaT cells were incubated in 96-well plates (Corning Incorporated COSTAR® 3599) at a density of 3×10^3 cells/well and 5×10^3 cells/well, respectively. After 24 hours, the cells were treated with various concentrations of bismuth subgallate (BSG) and borneol (BO) for 72 hours. The cytotoxicity effect of BSG and BO was estimated by the relative viability (%) of the cells, which was determined by measuring the reduction of tetrazolium salt MTT using a Microplate reader (Thermo Lab systems Multishkan Spectrum) at a test wavelength of 550 nm and a reference wavelength of 690 nm. The relative viability is calculated by the following equation: Relative Viability(%)=ODtestODcontrol×100 The results are represented by the means plus standard errors (Mean±SE) of five repetitions.

[2] = tested on: normal human keratinocyte (HaCaT) cells; experiment: Cytotoxicity assay (MTT relative viability), HaCaT cells; type: cell-based; conditions: BSG and BO applied together, 72 hours, FIG. 2
Method: as §1, §2

Compound | lowest concentration at which reduction of relative viability of A375 cells is observed [1] [µg/mL] | concentrations at which cytotoxicity effect on HaCaT cells is observed (only at high concentrations) [2]
CC1(C)C2CCC1(C)C(O)C2 (stereo not drawn) [BO, borneol] | 2.5 | –
bismuth subgallate [BSG] | 17.5 | 140 µg/mL and 280 µg/mL
